Data reported in patent US20090087845A1, “Genetic Markers Of True Low Birth Weight” (priority 2005, published 2009).
“And” between values parts separate entries of the source, which are not always exact repeats. Equal values may be shown once.

Test system: placental gene expression
Assay: Placental gene expression (Affymetrix Rat Genome Chip 230.2) after SSRI (fluoxetine) exposure throughout gestation
Format: in vivo
Conditions: placenta, SSRI-exposed samples
Method: Gene expression data from pregnant rats under different forms of dietary restriction was gathered. […] (N=8) • Group 2 (CR50): Rats Given 50% of their Normal Daily Intake of Food. (N=5) • Group 3 (CR70): Rats Given 70% of their Normal Daily Intake of Food. […] (N=6) Placentas from the rats of each Group were harvested on Day 21 of gestation. RNA was extracted and gene expression was measured based on hybridization of RNA to Affymetrix Rat Genome Chips™ (230.2) (Affymetrix, Santa Clara, Calif.).
In order to determine whether placental gene expression profiling can be used to identify other prenatal exposures such as toxicants and drugs, a group of rats with drug exposure was monitored as described above. […] As with control, CR50, CR70, and HF groups, placentas from the mothers were sampled after 21 days of gestation and gene expression monitored utilizing an Affymetrix Rat Genome Chip.

SMILES: CNCCC(Oc1ccc(C(F)(F)F)cc1)c1ccccc1 (centres unmarked) [fluoxetine, Fluoxetine]
- expression, probeset 1368985_at: 4.725 and 4.454 and 4.646 and 4.715 and 4.588 and 4.472
- expression, probeset 1369005_at: 5.188 and 5.546 and 5.291 and 5.305 and 5.241 and 5.222
- expression, probeset 1369014_at: 4.757 and 5.004 and 4.708 and 4.543 and 4.616 and 4.993
- expression, probeset 1369051_at: 5.588 and 5.207 and 4.835 and 5.011 and 5.144 and 5.186
- expression, probeset 1369192_at: 5.561 and 5.364 and 5.202 and 5.355 and 5.327 and 5.66
- expression, probeset 1369754_a_at: 8.583 and 8.277 and 8.264 and 8.283 and 8.554 and 8.483
- expression, probeset 1369894_at: 3.616 and 3.758 and 3.897 and 3.839 and 4.008 and 3.982
- expression, probeset 1370115_at: 4.967 and 4.917 and 4.824 and 4.622 and 4.818 and 4.719
- expression, probeset 1370260_at: 7.313 and 7.599 and 7.249 and 7.038 and 7.707 and 6.879
- expression, probeset 1370521_at: 8.48 and 8.58 and 8.737 and 8.764 and 8.624 and 8.798
- expression, probeset 1370682_at: 5.579 and 5.507 and 5.51 and 5.944 and 5.574 and 5.843
- expression, probeset 1370688_at: 7.904 and 7.963 and 8.096 and 7.915 and 8.157 and 7.99
- expression, probeset 1370766_at: 4.633 and 4.679 and 4.503 and 4.578 and 4.207 and 4.398
- expression, probeset 1371435_at: 11.53 and 11.47 and 12.47 and 12.43 and 12.2189 and 12.12
- expression, probeset 1371813_at: 6.757 and 6.608 and 7.254 and 7.022 and 6.663 and 6.909
- expression, probeset 1372141_at: 9.643 and 9.597 and 10.34 and 10.39 and 9.957 and 10.19
- expression, probeset 1372462_at: 7.912 and 7.819 and 7.864 and 7.873 and 6.184 and 8.214
- expression, probeset 1372514_s_at: 8.136 and 8.21 and 8.071 and 8.128 and 7.741 and 8.134
- expression, probeset 1372593_at: 7.225 and 7.133 and 7.724 and 8.015 and 7.571 and 7.719
- expression, probeset 1373319_at: 9.595 and 9.441 and 10.05 and 10.11 and 10.07 and 9.901
- expression, probeset 1373396_at: 8.164 and 8.317 and 8.21 and 8.056 and 8.147 and 8.247
- expression, probeset 1373702_at: 7.559 and 7.846 and 7.181 and 7.332 and 7.377 and 7.496
- expression, probeset 1373804_at: 7.894 and 7.963 and 7.858 and 8.12 and 7.699 and 8.068
- expression, probeset 1373925_at: 6.195 and 6.159
- expression, probeset 1374112_at: 7.049 and 6.725 and 6.891 and 7.196 and 7.138 and 6.73
- expression, probeset 1374231_at: 8.494 and 8.998 and 8.117 and 8.316 and 7.948 and 8.466
- expression, probeset 1374656_at: 8.729 and 9.034 and 8.507 and 8.743 and 9.004 and 8.9546
- expression, probeset 1374739_at: 8.348 and 8.65 and 7.424 and 7.76 and 7.662 and 7.815
- expression, probeset 1374807_at: 6.505 and 6.904 and 6.697 and 6.907 and 6.749 and 6.775
- expression, probeset 1375407_at: 4.487 and 4.33 and 4.344 and 4.489 and 4.605 and 4.326
- expression, probeset 1375738_at: 4.993 (2×) and 4.843 and 5.388 and 5.322 and 5.141
- expression, probeset 1376136_at: 5.074 and 4.867 and 4.557 and 4.873 and 4.805 and 4.931
- expression, probeset 1376218_a_at: 4.961 and 5.16 and 4.667 and 4.873 and 4.562 and 4.552
- expression, probeset 1376278_at: 6.191 and 6.405 and 5.934 and 6.175 and 6.205 and 6.006
- expression, probeset 1376289_at: 3.746 and 3.75 and 3.659 and 3.772 and 3.71 and 3.697
- expression, probeset 1376294_at: 7.495 and 7.951 and 7.425 and 7.689 and 7.578 and 7.48
- expression, probeset 1376844_at: 3.958 and 3.92 and 4.036 and 4.211 and 4.082 and 4.214
- expression, probeset 1376852_at: 6.78 and 6.537 and 6.455 and 6.699 and 6.862 and 6.682
- expression, probeset 1377028_at: 5.528 and 5.846 and 5.206 and 5.427 and 5.578 and 5.375
- expression, probeset 1377123_at: 8.958 and 9.069 and 8.729 and 8.819 and 8.853 and 8.789
- expression, probeset 1377210_at: 5.83 and 5.617 and 6.032 and 5.854 and 6.198 and 5.93
- expression, probeset 1377414_at: 7.593
- expression, probeset 1377476_at: 3.935 and 3.899 and 3.84 and 3.865 and 3.998 and 4.107
- expression, probeset 1377621_at: 8.676 and 8.675 and 8.549 and 8.432 and 8.896 and 8.593
- expression, probeset 1377746_at: 6.432 and 6.591 and 6.425 and 6.509 and 6.484 and 6.597
- expression, probeset 1378275_at: 8.581 and 8.43 and 8.773 and 8.828 and 8.515 and 8.555
- expression, probeset 1378318_at: 7.572 and 7.8 and 8.112 and 7.987 and 7.864 and 8.147
- expression, probeset 1378355_a_at: 5.807 and 6.412 and 5.853 and 5.536 and 5.777 and 6.037
- expression, probeset 1378642_at: 6.331 and 6.197 and 6.546 and 6.861 and 6.598 and 6.634
- expression, probeset 1378705_at: 8.279 and 8.34 and 7.828 and 7.561 and 7.947 and 7.98
- expression, probeset 1378872_at: 4.782 and 4.711 and 4.621 and 4.863 and 4.867 and 4.775
- expression, probeset 1378992_at: 3.832 and 3.701 and 3.85 and 3.859 and 3.911 and 3.949
- expression, probeset 1379110_at: 3.965 and 4.036 and 3.739 and 3.917 and 3.886 and 3.804
- expression, probeset 1379140_at: 4.026 and 4.28 and 4.108 and 3.886 and 4.071 and 4.079
- expression, probeset 1379206_at: 6.486 and 6.611 and 6.213 and 6.405 and 6.472 and 6.395
- expression, probeset 1379235_x_at: 7.486 and 7.695 and 7.128 and 7.252 and 7.527 and 7.244
- expression, probeset 1379342_at: 6.297 and 6.3 and 6.275 and 6.188 and 6.259 and 6.187
- expression, probeset 1379408_at: 8.688 and 8.662 and 8.77 and 8.887 and 8.853 and 8.912
- expression, probeset 1379796_at: 5.201 and 4.92 and 5.205 and 5.072 and 5.171 and 5.031
- expression, probeset 1379827_at: 7.897 and 7.85 and 7.7663 and 7.925 and 7.632 and 7.663
- expression, probeset 1379963_at: 6.925 and 7.095 and 7.165 and 7.115 and 7.307 and 7.146
- expression, probeset 1379980_at: 7.864 and 7.817 and 8.195 and 8.083 and 7.784 and 8.003
- expression, probeset 1380152_at: 5.47 and 5.228 and 5.461 and 5.179 and 5.39 and 5.269
- expression, probeset 1380392_at: 6.093 and 5.622 and 5.425 and 5.398 and 5.781 and 5.646
- expression, probeset 1380454_at: 5.81 and 5.871 and 5.693 and 5.717 and 5.721 and 5.875
- expression, probeset 1381074_at: 4.343 and 4.301 and 4.059 and 4.183 and 4.17 and 4.086
- expression, probeset 1381122_at: 5.406 and 5.219 and 5.499 and 5.148 and 5.434 and 5.212
- expression, probeset 1381286_at: 5.261 and 5.374 and 5.297 and 5.034 and 5.316 and 5.389
- expression, probeset 1381483_at: 3.996 and 4.01 and 3.983 and 3.972 and 3.97 and 4.017
- expression, probeset 1381872_at: 6.498 and 7.027 and 7.042 and 6.737 and 6.911 and 6.996
- expression, probeset 1381874_at: 6.734 and 6.453 and 6.457 and 6.588 and 6.285 and 6.523
- expression, probeset 1381941_at: 8.218
- expression, probeset 1381950_at: 3.397 and 3.37 and 3.47 and 3.379 and 3.404
- expression, probeset 1381966_at: 8.36 and 8.855 and 8.774 and 8.518 and 8.76 and 8.757
- expression, probeset 1382015_at: 7.649 and 7.911 and 7.376 and 7.559 and 7.728 and 7.55
- expression, probeset 1382056_at: 8.204 and 7.693 and 8.302 and 8.683 and 9.183 and 8.357
- expression, probeset 1382110_at: 7.206 and 7.183 and 6.692 and 6.852 and 6.784 and 6.862
- expression, probeset 1382513_at: 6.939 and 6.904 and 6.918 and 6.844 and 6.991 and 6.992
- expression, probeset 1382608_at: 5.493 and 5.536 and 5.441 and 5.641 and 5.553 and 5.573
- expression, probeset 1382825_at: 6.303
- expression, probeset 1382932_at: 5.367 and 5.211 and 5.239 and 5.252 and 5.387 and 5.359
- expression, probeset 1383132_at: 5.887 and 6.391 and 5.865 and 5.893 and 5.977 and 5.951
- expression, probeset 1383300_at: 8.422 and 8.732 and 8.861 and 8.982 and 9.071 and 8.854
- expression, probeset 1383309_at: 7.874 and 8.135 and 8.529 and 8.112 and 8.518 and 7.955
- expression, probeset 1383376_at: 6.632 and 7.028 and 7.303 and 6.987 and 6.76 and 6.955
- expression, probeset 1383430_at: 6.213 and 5.851 and 6.754 and 6.641 and 6.446 and 6.508
- expression, probeset 1383443_at: 5.895 and 5.907 and 6.025 and 5.854 and 5.859 and 6.136
- expression, probeset 1383472_at: 3.955 and 3.951 and 3.984 and 4.033 and 3.887 and 3.899
- expression, probeset 1383659_a_at: 5.774 and 5.519 and 5.386 and 5.431 and 4.833 and 6.496
- expression, probeset 1383667_at: 8 and 8.041 and 8.381 and 8.126 and 8.244 and 8.175
- expression, probeset 1383670_at: 7.784 and 7.593 and 7.74 and 7.592 and 7.856 and 7.209
- expression, probeset 1383900_at: 4.742 and 4.617 and 4.606 and 4.705 and 4.749 and 4.765
- expression, probeset 1383984_at: 3.997 and 4.264 and 4.189 and 4.266 and 4.14 and 4.315
- expression, probeset 1384135_at: 7.574 and 7.593 and 7.557 and 7.727 and 7.711 and 7.722
- expression, probeset 1384195_at: 5.325 and 5.826 and 5.609 and 5.355 and 5.716 and 5.368
- expression, probeset 1384374_at: 6.358 and 6.643 and 6.365 and 5.887 and 6.421 and 6.362
- expression, probeset 1384377_at: 7.233 and 7.134 and 7.085 and 7.15 and 7.214 and 7.158
- expression, probeset 1384467_at: 8.34 and 8.507 and 8.418 and 8.058 and 8.062 and 8.234
